Targets include Cannabinoid receptor 1 (Homo sapiens, UniProt P21554); Melanocortin receptor 4 (Homo sapiens, UniProt P32245); Motilin receptor (Homo sapiens, UniProt O43193); Histamine H3 receptor (Homo sapiens, UniProt Q9Y5N1); Histamine H1 receptor (Homo sapiens, UniProt P35367).
In another test the target is Bile salt export pump (Homo sapiens, UniProt O95342). It is filed as functional.
In test [1] the target is T1, Alpha-2A adrenergic receptor (Homo sapiens, UniProt P08913).
T1 sequence (P08913 whole entry): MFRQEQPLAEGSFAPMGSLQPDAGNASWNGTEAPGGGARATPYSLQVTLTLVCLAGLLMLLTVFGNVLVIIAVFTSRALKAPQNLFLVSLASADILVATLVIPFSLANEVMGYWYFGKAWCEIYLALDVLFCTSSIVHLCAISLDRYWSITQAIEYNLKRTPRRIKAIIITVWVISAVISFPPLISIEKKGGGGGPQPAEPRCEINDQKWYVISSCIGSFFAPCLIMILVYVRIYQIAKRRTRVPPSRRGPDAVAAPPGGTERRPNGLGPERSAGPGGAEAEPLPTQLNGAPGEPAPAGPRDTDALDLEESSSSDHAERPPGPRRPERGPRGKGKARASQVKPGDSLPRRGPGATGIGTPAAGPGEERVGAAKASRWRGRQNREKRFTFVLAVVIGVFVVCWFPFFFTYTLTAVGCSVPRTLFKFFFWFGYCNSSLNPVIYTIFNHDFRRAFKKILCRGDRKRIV
It is filed as functional, cell-based.

In test [2] the target is T1, Alpha-2A adrenergic receptor. Type of test: functional, cell-based. This is another data set of the same source.
The target of test [3] is Beta-1 adrenergic receptor (Homo sapiens, UniProt P08588). It is filed as functional.
Test [4] concerns the target T2, Type-1 angiotensin II receptor (Homo sapiens, UniProt P30556).
T2 sequence (P30556 whole entry): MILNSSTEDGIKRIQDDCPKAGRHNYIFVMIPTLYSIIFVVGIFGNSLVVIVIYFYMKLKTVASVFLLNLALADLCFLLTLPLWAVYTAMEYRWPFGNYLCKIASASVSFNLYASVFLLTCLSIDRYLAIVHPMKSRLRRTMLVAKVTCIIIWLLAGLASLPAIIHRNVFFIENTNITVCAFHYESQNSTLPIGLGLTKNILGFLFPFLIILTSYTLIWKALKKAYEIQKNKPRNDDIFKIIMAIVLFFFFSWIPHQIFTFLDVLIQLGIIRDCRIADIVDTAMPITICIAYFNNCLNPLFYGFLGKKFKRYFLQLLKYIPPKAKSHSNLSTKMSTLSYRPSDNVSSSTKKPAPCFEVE

In test [5] the target is Neuronal acetylcholine receptor subunit alpha-4 (Homo sapiens, UniProt P43681).
Neuronal acetylcholine receptor subunit alpha-4, sequence (P43681 whole entry): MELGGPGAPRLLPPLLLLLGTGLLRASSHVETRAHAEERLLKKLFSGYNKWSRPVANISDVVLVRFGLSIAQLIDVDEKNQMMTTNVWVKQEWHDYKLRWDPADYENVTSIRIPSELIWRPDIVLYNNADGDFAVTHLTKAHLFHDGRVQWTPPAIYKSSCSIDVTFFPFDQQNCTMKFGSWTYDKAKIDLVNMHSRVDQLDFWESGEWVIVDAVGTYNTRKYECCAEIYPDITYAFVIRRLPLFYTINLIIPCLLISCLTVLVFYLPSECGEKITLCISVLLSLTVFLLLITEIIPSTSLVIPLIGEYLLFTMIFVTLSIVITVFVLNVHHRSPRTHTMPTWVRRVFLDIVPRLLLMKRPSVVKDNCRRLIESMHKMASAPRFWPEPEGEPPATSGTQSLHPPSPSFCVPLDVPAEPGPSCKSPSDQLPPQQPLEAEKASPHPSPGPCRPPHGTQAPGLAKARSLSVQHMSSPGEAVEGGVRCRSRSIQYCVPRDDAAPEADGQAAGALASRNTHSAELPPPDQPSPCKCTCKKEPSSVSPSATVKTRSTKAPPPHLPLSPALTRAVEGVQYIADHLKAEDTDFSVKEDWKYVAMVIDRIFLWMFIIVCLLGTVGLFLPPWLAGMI
The target in a further test is Prothrombin (Homo sapiens, UniProt P00734). Type of test: functional.
In test [6] the target is Glutamate receptor ionotropic, NMDA 1 (Rattus norvegicus, UniProt P35439).
The target in test [7] is 5-hydroxytryptamine receptor 2B (Homo sapiens, UniProt P41595). Type of test: functional, cell-based.
5-hydroxytryptamine receptor 2B, sequence (P41595 whole entry): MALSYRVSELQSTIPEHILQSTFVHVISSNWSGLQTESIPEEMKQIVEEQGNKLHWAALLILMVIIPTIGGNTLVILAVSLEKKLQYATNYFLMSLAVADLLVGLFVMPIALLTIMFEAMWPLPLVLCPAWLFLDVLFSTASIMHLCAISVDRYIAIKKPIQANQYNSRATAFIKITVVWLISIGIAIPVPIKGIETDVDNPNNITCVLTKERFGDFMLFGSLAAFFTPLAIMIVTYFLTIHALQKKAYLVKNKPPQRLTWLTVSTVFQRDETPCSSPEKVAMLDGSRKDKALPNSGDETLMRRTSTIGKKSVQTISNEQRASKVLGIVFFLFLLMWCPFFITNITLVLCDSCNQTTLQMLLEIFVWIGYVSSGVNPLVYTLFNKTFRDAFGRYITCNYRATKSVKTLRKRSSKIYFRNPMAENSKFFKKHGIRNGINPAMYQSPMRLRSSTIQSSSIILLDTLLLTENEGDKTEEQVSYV
In test [8] the target is T3, Neuropeptide Y receptor type 1 (Homo sapiens, UniProt P25929).
T3 sequence (P25929 whole entry): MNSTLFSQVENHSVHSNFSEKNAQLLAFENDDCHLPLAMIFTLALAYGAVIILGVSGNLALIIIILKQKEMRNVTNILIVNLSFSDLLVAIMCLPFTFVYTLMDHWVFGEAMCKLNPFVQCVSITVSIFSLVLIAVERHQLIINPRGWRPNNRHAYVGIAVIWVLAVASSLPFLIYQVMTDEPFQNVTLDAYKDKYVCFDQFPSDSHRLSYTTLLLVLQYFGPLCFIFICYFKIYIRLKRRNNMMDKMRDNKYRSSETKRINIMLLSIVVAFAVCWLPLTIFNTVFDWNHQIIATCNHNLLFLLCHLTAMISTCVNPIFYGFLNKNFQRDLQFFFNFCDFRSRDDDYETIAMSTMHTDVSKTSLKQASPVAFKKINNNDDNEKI

The target of test [9] is Kappa-type opioid receptor (Homo sapiens, UniProt P41145).
The target of test [10] is T4, Mu-type opioid receptor (Homo sapiens, UniProt P35372).
Test [11] addresses cGMP-inhibited 3',5'-cyclic phosphodiesterase 3A (Homo sapiens, UniProt Q14432). Type of test: functional.
In test [12] the target is 3',5'-cyclic-AMP phosphodiesterase 4A (Homo sapiens, UniProt P27815). Type of test: functional.
3',5'-cyclic-AMP phosphodiesterase 4A, sequence (P27815 whole entry): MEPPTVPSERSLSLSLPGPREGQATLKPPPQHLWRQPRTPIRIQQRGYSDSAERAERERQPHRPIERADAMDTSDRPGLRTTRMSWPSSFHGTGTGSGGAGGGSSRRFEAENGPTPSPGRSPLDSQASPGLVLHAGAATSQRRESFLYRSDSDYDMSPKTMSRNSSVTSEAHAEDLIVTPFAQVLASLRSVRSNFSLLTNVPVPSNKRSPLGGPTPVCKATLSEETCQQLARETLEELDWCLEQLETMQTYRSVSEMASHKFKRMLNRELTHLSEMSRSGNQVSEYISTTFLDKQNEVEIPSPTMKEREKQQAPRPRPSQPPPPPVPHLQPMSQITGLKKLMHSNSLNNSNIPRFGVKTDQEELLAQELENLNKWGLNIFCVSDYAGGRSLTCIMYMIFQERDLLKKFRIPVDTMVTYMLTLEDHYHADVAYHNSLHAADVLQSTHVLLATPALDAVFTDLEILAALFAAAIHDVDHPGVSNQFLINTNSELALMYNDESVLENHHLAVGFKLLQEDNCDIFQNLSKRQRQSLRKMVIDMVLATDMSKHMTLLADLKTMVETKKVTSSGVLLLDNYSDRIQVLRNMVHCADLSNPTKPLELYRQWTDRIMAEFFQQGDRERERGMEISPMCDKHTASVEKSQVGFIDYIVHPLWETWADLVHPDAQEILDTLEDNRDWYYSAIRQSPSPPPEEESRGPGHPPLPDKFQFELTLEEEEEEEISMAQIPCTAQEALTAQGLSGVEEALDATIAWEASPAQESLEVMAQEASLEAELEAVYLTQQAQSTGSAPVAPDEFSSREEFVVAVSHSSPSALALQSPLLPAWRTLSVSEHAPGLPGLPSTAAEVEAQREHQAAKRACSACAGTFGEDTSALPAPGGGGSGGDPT
Test [13] concerns the target Prostaglandin G/H synthase 1 (Homo sapiens, UniProt P23219). It is filed as functional.
Another test has as its target T5, Thromboxane A2 receptor (Homo sapiens, UniProt P21731).
T5 sequence (P21731 whole entry): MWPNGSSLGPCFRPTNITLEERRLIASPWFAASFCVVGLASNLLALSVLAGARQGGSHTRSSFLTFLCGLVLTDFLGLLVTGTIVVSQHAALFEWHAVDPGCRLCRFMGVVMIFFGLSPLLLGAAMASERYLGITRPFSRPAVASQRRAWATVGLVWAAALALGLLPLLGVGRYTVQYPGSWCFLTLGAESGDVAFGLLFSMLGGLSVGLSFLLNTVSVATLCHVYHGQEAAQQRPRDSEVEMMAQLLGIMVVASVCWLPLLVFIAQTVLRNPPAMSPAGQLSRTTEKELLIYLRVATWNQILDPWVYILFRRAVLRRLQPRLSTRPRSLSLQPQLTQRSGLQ
Type of test: functional, cell-based.

Test [14] deals with T4, Mu-type opioid receptor. This is another data set of the same source.
Test [15] addresses Sodium-dependent serotonin transporter (Homo sapiens, UniProt P31645).
Also: assay procedure not described here.

Sodium-dependent serotonin transporter, sequence (P31645 whole entry): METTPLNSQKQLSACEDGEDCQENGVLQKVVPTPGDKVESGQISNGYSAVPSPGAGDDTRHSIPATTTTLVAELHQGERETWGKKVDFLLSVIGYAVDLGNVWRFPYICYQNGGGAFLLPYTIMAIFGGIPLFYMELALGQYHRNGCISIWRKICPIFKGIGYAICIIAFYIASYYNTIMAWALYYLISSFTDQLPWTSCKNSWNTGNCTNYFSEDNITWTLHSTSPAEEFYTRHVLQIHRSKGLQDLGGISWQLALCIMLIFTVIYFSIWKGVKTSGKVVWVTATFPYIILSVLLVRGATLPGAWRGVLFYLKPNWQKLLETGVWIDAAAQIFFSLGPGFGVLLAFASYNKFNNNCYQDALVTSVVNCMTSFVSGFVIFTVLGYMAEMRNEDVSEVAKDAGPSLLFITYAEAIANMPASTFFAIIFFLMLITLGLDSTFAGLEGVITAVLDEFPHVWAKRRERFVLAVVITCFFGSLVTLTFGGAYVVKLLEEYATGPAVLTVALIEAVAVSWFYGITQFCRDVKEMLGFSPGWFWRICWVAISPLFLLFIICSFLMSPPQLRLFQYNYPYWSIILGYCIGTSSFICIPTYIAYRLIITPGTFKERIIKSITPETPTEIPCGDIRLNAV
Melanocortin receptor 4, sequence (P32245 whole entry): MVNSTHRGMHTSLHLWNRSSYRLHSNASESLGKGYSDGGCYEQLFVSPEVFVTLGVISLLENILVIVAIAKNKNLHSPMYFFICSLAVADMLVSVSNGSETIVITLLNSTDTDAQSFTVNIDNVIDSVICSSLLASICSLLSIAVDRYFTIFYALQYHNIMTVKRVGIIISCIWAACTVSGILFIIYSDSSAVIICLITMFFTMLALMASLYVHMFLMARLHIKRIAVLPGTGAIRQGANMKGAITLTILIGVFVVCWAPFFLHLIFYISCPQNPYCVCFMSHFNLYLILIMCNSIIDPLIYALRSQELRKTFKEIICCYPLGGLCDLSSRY
Prostaglandin G/H synthase 1, sequence (P23219 whole entry): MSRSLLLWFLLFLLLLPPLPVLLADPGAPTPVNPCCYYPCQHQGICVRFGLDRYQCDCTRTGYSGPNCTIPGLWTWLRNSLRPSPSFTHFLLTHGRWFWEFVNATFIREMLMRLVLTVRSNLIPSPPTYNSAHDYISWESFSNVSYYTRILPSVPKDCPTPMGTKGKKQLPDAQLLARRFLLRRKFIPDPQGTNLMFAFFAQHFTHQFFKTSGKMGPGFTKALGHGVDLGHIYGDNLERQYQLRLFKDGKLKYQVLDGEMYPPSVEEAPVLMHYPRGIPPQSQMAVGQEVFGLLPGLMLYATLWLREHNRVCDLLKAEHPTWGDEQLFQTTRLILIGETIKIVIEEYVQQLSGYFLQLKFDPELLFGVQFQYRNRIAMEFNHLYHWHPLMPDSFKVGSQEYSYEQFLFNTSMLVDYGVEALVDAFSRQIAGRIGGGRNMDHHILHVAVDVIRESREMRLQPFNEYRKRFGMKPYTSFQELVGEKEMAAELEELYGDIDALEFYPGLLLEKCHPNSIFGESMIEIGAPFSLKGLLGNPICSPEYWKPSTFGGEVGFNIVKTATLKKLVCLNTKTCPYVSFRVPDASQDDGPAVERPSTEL
Histamine H1 receptor, sequence (P35367 whole entry): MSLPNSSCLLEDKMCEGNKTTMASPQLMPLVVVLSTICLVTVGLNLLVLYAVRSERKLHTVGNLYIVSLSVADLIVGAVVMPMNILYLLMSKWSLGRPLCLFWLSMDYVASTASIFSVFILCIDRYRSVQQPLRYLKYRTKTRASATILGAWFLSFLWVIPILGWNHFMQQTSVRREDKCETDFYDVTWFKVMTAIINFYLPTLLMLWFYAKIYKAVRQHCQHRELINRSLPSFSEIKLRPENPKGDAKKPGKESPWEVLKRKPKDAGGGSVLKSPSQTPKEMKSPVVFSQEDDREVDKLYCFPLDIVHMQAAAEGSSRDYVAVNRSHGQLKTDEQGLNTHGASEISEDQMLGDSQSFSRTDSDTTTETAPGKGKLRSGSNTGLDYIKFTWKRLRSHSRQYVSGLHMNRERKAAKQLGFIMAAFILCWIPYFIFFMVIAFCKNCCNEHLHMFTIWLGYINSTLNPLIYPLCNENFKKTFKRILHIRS
Histamine H3 receptor, sequence (Q9Y5N1 whole entry): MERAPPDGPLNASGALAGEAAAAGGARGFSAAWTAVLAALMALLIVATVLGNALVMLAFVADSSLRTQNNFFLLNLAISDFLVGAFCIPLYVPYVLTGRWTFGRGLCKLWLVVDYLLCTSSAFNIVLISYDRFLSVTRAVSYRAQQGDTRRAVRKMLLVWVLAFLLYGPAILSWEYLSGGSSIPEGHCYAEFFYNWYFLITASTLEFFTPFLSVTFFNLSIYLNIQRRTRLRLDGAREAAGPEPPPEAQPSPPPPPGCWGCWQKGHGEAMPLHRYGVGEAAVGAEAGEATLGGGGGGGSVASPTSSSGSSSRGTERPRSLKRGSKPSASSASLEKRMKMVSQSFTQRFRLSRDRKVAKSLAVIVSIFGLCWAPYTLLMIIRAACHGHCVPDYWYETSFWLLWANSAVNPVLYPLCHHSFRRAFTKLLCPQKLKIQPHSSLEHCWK
Motilin receptor, sequence (O43193 whole entry): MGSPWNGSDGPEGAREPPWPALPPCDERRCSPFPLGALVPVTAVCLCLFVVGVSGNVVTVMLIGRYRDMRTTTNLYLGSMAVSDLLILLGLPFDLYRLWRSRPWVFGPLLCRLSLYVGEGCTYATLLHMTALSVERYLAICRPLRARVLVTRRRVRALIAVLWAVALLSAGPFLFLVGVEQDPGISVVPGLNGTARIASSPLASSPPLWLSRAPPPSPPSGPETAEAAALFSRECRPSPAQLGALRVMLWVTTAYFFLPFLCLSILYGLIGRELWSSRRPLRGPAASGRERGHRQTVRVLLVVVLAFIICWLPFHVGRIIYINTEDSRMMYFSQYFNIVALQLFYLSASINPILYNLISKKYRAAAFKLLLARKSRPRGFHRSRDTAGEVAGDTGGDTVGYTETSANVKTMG

In the case of `CCOC(=O)[C@H](CCc1ccccc1)N[C@@H](C)C(=O)N1Cc2ccccc2C[C@H]1C(=O)O`, the AC50 (commonly the concentration giving half of the maximal activity seen) on Bile salt export pump was 100 µM; in test [1], more than 10 µM; in test [2], more than 10 µM; in [3], more than 10 µM; in test [4] it was more than 30 µM; in [5] it was more than 10 µM. Further, the AC50 was more than 10 µM at Cannabinoid receptor 1; more than 30 µM at Prothrombin; more than 10 µM in test [6]; more than 10 µM in test [7]; more than 30 µM on Melanocortin receptor 4; more than 10 µM on Motilin receptor. Further, the AC50 in [8] is more than 30 µM; in test [9] it was more than 10 µM; at Mu-type opioid receptor [10], more than 30 µM; in test [11], more than 30 µM; in [12], more than 30 µM; in test [13] it was more than 30 µM. In addition, the AC50 at Thromboxane A2 receptor was more than 30 µM; at Mu-type opioid receptor [14] it was more than 10 µM; at Histamine H3 receptor it was more than 10 µM.
With `C=CC1=C(C(=O)O)N2C(=O)[C@@H](NC(=O)/C(=N\O)c3csc(N)n3)[C@H]2SC1`, the AC50 at Bile salt export pump is more than 300 µM; in test [1], more than 10 µM; in [2], more than 10 µM; in [3], more than 30 µM; in test [4] it was more than 30 µM; in test [5], more than 10 µM. Also, the AC50 at Cannabinoid receptor 1 is 15.8 µM; in test [6], more than 10 µM; on Histamine H1 receptor, more than 10 µM; in test [7], more than 10 µM; at Melanocortin receptor 4 it was more than 30 µM; on Motilin receptor, more than 10 µM. The AC50 in test [8] is more than 30 µM; in test [9], more than 10 µM; in test [15], more than 30 µM; on Mu-type opioid receptor [14], more than 30 µM; on Histamine H3 receptor, more than 10 µM.
For `CN(C)CCC=C1c2ccccc2CCc2ccccc21` [AMITRIPTYLINE], the AC50 on Bile salt export pump was 180 µM; in [1] it was more than 10 µM; in [2] it was 9.1 µM; in test [3], 22.7 µM; in test [4] it was 1.4 µM; in test [5], more than 30 µM. Further, the AC50 is more than 10 µM at Cannabinoid receptor 1; more than 30 µM on Prothrombin; more than 10 µM in [6]; 17.7 µM at Melanocortin receptor 4; more than 30 µM at Motilin receptor; more than 30 µM in test [8]. The concentration at half-maximal activity (AC50) on Mu-type opioid receptor [10] is 9.46 µM; in test [11] it was more than 30 µM; in test [12], more than 30 µM; in test [13], more than 30 µM; at Thromboxane A2 receptor, 26.3 µM; at Mu-type opioid receptor [14] it was more than 30 µM. For the same molecule, the AC50 at Histamine H3 receptor amounted to 24 µM.
In the case of `CC(C)C[C@H](NC(=O)[C@H](Cc1ccccc1)NC(=O)c1cnccn1)B(O)O` [BORTEZOMIB], the AC50 is more than 300 µM on Bile salt export pump; more than 30 µM in test [1]; more than 30 µM in [2]; more than 30 µM in test [3]; more than 30 µM in test [4]; more than 30 µM in test [5]. Further, the AC50 (on Cannabinoid receptor 1; in test [6]; at Histamine H1 receptor; in test [7]; at Melanocortin receptor 4; at Motilin receptor) was more than 30 µM throughout. Moreover, the AC50 (in [8]; in test [9]; in test [15]; on Histamine H3 receptor) was more than 30 µM in each case.
With `CCN(CC)CCn1c(=O)c(Cc2ccc(OC)cc2)nc2ccccc21` [CAROVERINE], the half-maximal activity concentration (AC50) was more than 300 µM on Bile salt export pump; more than 30 µM in [1]; more than 30 µM in test [2]; more than 30 µM in test [3]; more than 30 µM in test [4]; more than 30 µM in test [5]. Further, the AC50 at Cannabinoid receptor 1 was more than 30 µM; in test [6], more than 30 µM; at Histamine H1 receptor it was 25 µM; in [7], more than 30 µM; on Melanocortin receptor 4, more than 30 µM; at Motilin receptor, 16.8 µM. In addition, the AC50 in test [8] was more than 30 µM; in test [9], 5.34 µM; in [15], more than 30 µM; on Histamine H3 receptor, 2.38 µM.
Take `NCC1(CC(=O)O)CCCCC1` [GABAPENTIN]: the AC50 at Bile salt export pump is more than 300 µM; in test [1], more than 30 µM; in test [2], more than 30 µM; in test [3], more than 30 µM; in test [4], more than 30 µM; in test [5] it was more than 30 µM. The AC50 is more than 10 µM at Cannabinoid receptor 1; more than 30 µM at Prothrombin; more than 10 µM in test [6]; more than 30 µM in test [7]; more than 30 µM at Melanocortin receptor 4; more than 30 µM at Motilin receptor. Moreover, the AC50 was more than 30 µM in [8]; more than 10 µM in [9]; more than 30 µM on Mu-type opioid receptor [10]; more than 30 µM in test [11]; more than 30 µM in test [12]; more than 30 µM in test [13]. Further, the concentration at half-maximal activity (AC50) at Thromboxane A2 receptor, on Mu-type opioid receptor [14] and on Histamine H3 receptor was more than 30 µM each time.
Take `CNC1(C)C2CCC(C2)C1(C)C` (configuration not stated) [MECAMYLAMINE]: the AC50 at Bile salt export pump is more than 300 µM; in test [1] it was more than 10 µM; in test [2], more than 10 µM; in [3], more than 10 µM; in test [4], more than 10 µM; in test [5], more than 10 µM. The AC50 (on Cannabinoid receptor 1; in test [6]; at Histamine H1 receptor; in test [7]; on Melanocortin receptor 4; on Motilin receptor) was more than 10 µM throughout. Besides, the AC50 in [8] was more than 10 µM; in test [9] it was more than 10 µM; in test [15], more than 10 µM; on Mu-type opioid receptor [14], more than 30 µM.
Take `C[C@H](Cn1cnc2c(N)ncnc21)OCP(=O)(O)O` [TENOFOVIR ANHYDROUS]: the AC50 at Bile salt export pump is more than 300 µM; in test [1], more than 30 µM; in test [2], more than 30 µM; in test [3] it was more than 30 µM; in test [4], more than 30 µM; in [5] it was more than 30 µM. For the same molecule, the AC50 (on Cannabinoid receptor 1; in test [6]; on Histamine H1 receptor; in [7]; at Melanocortin receptor 4; at Motilin receptor) was more than 30 µM throughout. Also, the AC50 (in test [8]; in [9]; in [15]; at Histamine H3 receptor) was more than 30 µM throughout.

The values are drawn from ChEMBL document CHEMBL5291721, “A preclinical secondary pharmacology resource illuminates target-adverse drug reaction associations of marketed drugs” (Nat Commun, 2023).
